Experimental data: patent US20260274892A1, “MACROCYCLIC BROAD SPECTRUM ANTIBIOTICS” (RQx Pharmaceuticals, Inc., priority 2017, published 2026)

Experiments:
[1] = system: Methicillin Resistant Staphylococcus aureus strain USA 200; assay: Minimum inhibitory concentration (MIC), CLSI broth micro-dilution, S. aureus; format: cell-based; details: Staphylococcus aureus, MRSA / USA200; Table 6; MRSA USA 200; cation adjusted Mueller Hinton Broth + 0.002% Tween-80; 35° C., 22 hours
Summary of the method: (§1)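 Antibacterial potency is measured as MIC by the CLSI broth dilution method. Bacteria at OD600 0.0005 in Tween-80-supplemented cation-adjusted Mueller Hinton broth face ten twofold compound dilutions for 22 h at 35° C.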

[2] = system: Escherichia coli ATCC 25922; assay: Minimum inhibitory concentration (MIC), CLSI broth micro-dilution, E. coli; format: cell-based; details: Escherichia coli, ATCC25922, 22 h, Table 6, cation adjusted Mueller Hinton Broth + 0.002% Tween-80, 35° C.
Summary of the method: as §1

| MIC [1] | MIC [2] | SMILES |
| --- | --- | --- |
| 0.031 µM | 0.38 µM | COc1nc(-c2ccc(C(C)(C)C)cc2)nc(C)c1C(=O)N[C@@H](CCN)C(=O)N(C)[C@@H]1C(=O)N[C@@H](C)C(=O)N[C@H](C(=O)NCC#N)Cc2ccc(OCCN)c(c2)-c2cc1ccc2OCCN (racemic) [Compound 422, rac-(8S,11S,14S)-3,18-bis(2-aminoethoxy)-N-(cyanomethyl)-11-methyl-14-[methyl-[rac-(2S)-4-amino-2-[[2-(4-tert-butylphenyl)-4-methoxy-6-methyl-pyrimidine-5-carbonyl]amino]butanoyl]amino]-10,13-dioxo-9,12-diazatricyclo[13.3.1.12,6]icosa-1(18),2(20),3,5,15(19),16-hexaene-8-carboxamide] |
| 0.04 µM | 5.1 µM | CCCCCCc1ccc(C(=O)N[C@@H](CCN)C(=O)N[C@@H]2C(=O)N[C@@H](C)C(=O)N[C@H](C(=O)NCC#N)Cc3ccc(O)c(c3)-c3cc2ccc3O)c(C)c1 (racemic) [Compound 471, rac-(8S,11S,14S)-N-(cyanomethyl)-3,18-dihydroxy-11-methyl-10,13-dioxo-14-[[rac-(2S)-4-amino-2-[(4-hexyl-2-methyl-benzoyl)amino]butanoyl]amino]-9,12-diazatricyclo[13.3.1.12,6]icosa-1(18),2(20),3,5,15(19),16-hexaene-8-carboxamide] |
| 0.094 µM | 1.5 µM | Cc1nc(-c2ccc(OC3CCCCC3)cc2)nc(C)c1C(=O)N[C@@H](CCC(N)=O)C(=O)N(C)[C@@H]1C(=O)N[C@@H](C)C(=O)N[C@H](C(=O)NCC#N)Cc2ccc(OCCN)c(c2)-c2cc1ccc2OCCN (racemic) [Compound 505, rac-(2S)-2-[[2-[4-(cyclohexoxy)phenyl]-4,6-dimethyl-pyrimidine-5-carbonyl]amino]-N-methyl-N-[rac-(7S,10S,13S)-3,18-bis(2-aminoethoxy)-13-(cyanomethylcarbamoyl)-10-methyl-8,11-dioxo-9,12-diazatricyclo[13.3.1.12,6]icosa-1(19),2,4,6(20),15,17-hexaen-7-yl]pentanediamide] |
| 0.26 µM | 1 µM | CCCCCCCc1ccc(C(=O)N[C@@H](CCN)C(=O)N(C)[C@@H]2C(=O)N[C@@H](C)C(=O)N[C@H](C(=O)NCC#N)Cc3ccc(OCCN)c(c3)-c3cc2ccc3OCCN)c(OCC(=O)O)c1 (racemic) [Compound 379, 2-[5-heptyl-2-[[rac-(1S)-3-amino-1-[methyl-[rac-(7S,10S,13S)-3,18-bis(2-aminoethoxy)-13-(cyanomethylcarbamoyl)-10-methyl-8,11-dioxo-9,12-diazatricyclo[13.3.1.12,6]icosa-1(19),2,4,6(20),15,17-hexaen-7-yl]carbamoyl]propyl]carbamoyl]phenoxy]acetic acid] |
| 0.0082 µM | 0.099 µM | Cc1nc(-c2ccc(CC3CCC3)cc2)ncc1C(=O)N[C@@H](CCN)C(=O)N(C)[C@@H]1C(=O)N[C@@H](C)C(=O)N[C@H](C(=O)NCC#N)Cc2ccc(OCCN)c(c2)-c2cc1ccc2OCCN (racemic) [Compound 217, rac-(8S,11S,14S)-3,18-bis(2-aminoethoxy)-N-(cyanomethyl)-11-methyl-14-[methyl-[rac-(2S)-4-amino-2-[[2-[4-(cyclobutylmethyl)phenyl]-4-methyl-pyrimidine-5-carbonyl]amino]butanoyl]amino]-10,13-dioxo-9,12-diazatricyclo[13.3.1.12,6]icosa-1(18),2(20),3,5,15(19),16-hexaene-8-carboxamide] |
| 0.18 µM | 3.9 µM | Cc1nc(-c2ccc(C(C)(C)C)cc2)ncc1C(=O)N[C@@H](CCN)C(=O)N(C)[C@@H]1C(=O)N[C@@H](C)C(=O)N[C@H](C(=O)NCC#N)Cc2ccc(O)c(c2)-c2cc1ccc2O (racemic) [Compound 431, rac-(8S,11S,14S)-N-(cyanomethyl)-3,18-dihydroxy-11-methyl-14-[methyl-[rac-(2S)-4-amino-2-[[2-(4-tert-butylphenyl)-4-methyl-pyrimidine-5-carbonyl]amino]butanoyl]amino]-10,13-dioxo-9,12-diazatricyclo[13.3.1.12,6]icosa-1(18),2(20),3,5,15(19),16-hexaene-8-carboxamide] |
| 0.012 µM | 0.16 µM | Cc1nc(-c2ccc(C(C)(C)C)cc2)ncc1C(=O)N[C@@H](CCN)C(=O)N(C)[C@@H]1C(=O)N[C@@H](C)C(=O)N[C@H](C(=O)NCC#N)Cc2ccc(OC[C@H](C)N)c(c2)-c2cc1ccc2OC[C@H](C)N (racemic) [Compound 438, rac-(8S,11S,14S)-N-(cyanomethyl)-11-methyl-14-[methyl-[rac-(2S)-4-amino-2-[[2-(4-tert-butylphenyl)-4-methyl-pyrimidine-5-carbonyl]amino]butanoyl]amino]-10,13-dioxo-3,18-bis[rac-(2S)-2-aminopropoxy]-9,12-diazatricyclo[13.3.1.12,6]icosa-1(18),2(20),3,5,15(19),16-hexaene-8-carboxamide] |
| 0.0082 µM | 0.066 µM | CCCCc1ccc(-c2nc(C)c(C(=O)N[C@@H](CCN)C(=O)N(C)[C@@H]3C(=O)N[C@@H](C)C(=O)N[C@H](C(=O)NCC#N)Cc4ccc(OCCN)c(c4)-c4cc3ccc4OCCN)c(C)n2)cc1 (racemic) [Compound 255, rac-(8S,11S,14S)-3,18-bis(2-aminoethoxy)-N-(cyanomethyl)-11-methyl-14-[methyl-[rac-(2S)-4-amino-2-[[2-(4-butylphenyl)-4,6-dimethyl-pyrimidine-5-carbonyl]amino]butanoyl]amino]-10,13-dioxo-9,12-diazatricyclo[13.3.1.12,6]icosa-1(18),2(20),3,5,15(19),16-hexaene-8-carboxamide] |
| 0.083 µM | 0.71 µM | Cc1nc(-c2ccc(C(C)(C)C)cc2)ncc1C(=O)N[C@@H](CCO)C(=O)N(C)[C@@H]1C(=O)N[C@@H](C)C(=O)N[C@H](C(=O)NCC#N)Cc2ccc(OCCN)c(c2)-c2cc1ccc2OCCN (racemic) [Compound 459, rac-(8S,11S,14S)-3,18-bis(2-aminoethoxy)-N-(cyanomethyl)-11-methyl-14-[methyl-[rac-(2S)-2-[[2-(4-tert-butylphenyl)-4-methyl-pyrimidine-5-carbonyl]amino]-4-hydroxy-butanoyl]amino]-10,13-dioxo-9,12-diazatricyclo[13.3.1.12,6]icosa-1(18),2(20),3,5,15(19),16-hexaene-8-carboxamide] |
| 0.016 µM | 0.13 µM | Cc1nc(-c2ccc(N3CCCCCC3)cc2)nc(C)c1C(=O)N[C@@H](CCN)C(=O)N(C)[C@@H]1C(=O)N[C@@H](C)C(=O)N[C@H](C(=O)NCC#N)Cc2ccc(OCCN)c(c2)-c2cc1ccc2OCCN (racemic) [Compound 325, rac-(8S,11S,14S)-3,18-bis(2-aminoethoxy)-N-(cyanomethyl)-11-methyl-14-[methyl-[rac-(2S)-4-amino-2-[[2-[4-(azepan-1-yl)phenyl]-4,6-dimethyl-pyrimidine-5-carbonyl]amino]butanoyl]amino]-10,13-dioxo-9,12-diazatricyclo[13.3.1.12,6]icosa-1(18),2(20),3,5,15(19),16-hexaene-8-carboxamide] |
| 0.013 µM | 0.27 µM | CCCCCCc1ccc2nc(C)c(C(=O)N[C@@H](CCN)C(=O)N(C)[C@@H]3C(=O)N[C@@H](C)C(=O)N[C@H](C(=O)NCC#N)Cc4ccc(OCCN)c(c4)-c4cc3ccc4OCCN)cc2c1 (racemic) [Compound 395, rac-(8S,11S,14S)-3,18-bis(2-aminoethoxy)-N-(cyanomethyl)-11-methyl-14-[methyl-[rac-(2S)-4-amino-2-[(6-hexyl-2-methyl-quinoline-3-carbonyl)amino]butanoyl]amino]-10,13-dioxo-9,12-diazatricyclo[13.3.1.12,6]icosa-1(18),2(20),3,5,15(19),16-hexaene-8-carboxamide] |
| 0.023 µM | 0.19 µM | Cc1nc(-c2ccc(OC3CCC(C)(C)CC3)cc2)nc(C)c1C(=O)N[C@@H](CCN)C(=O)N(C)[C@@H]1C(=O)N[C@@H](C)C(=O)N[C@H](C(=O)NCC#N)Cc2ccc(OCCN)c(c2)-c2cc1ccc2OCCN (racemic) [Compound 348, rac-(8S,11S,14S)-3,18-bis(2-aminoethoxy)-N-(cyanomethyl)-11-methyl-14-[methyl-[rac-(2S)-4-amino-2-[[2-[4-(4,4-dimethylcyclohexoxy)phenyl]-4,6-dimethyl-pyrimidine-5-carbonyl]amino]butanoyl]amino]-10,13-dioxo-9,12-diazatricyclo[13.3.1.12,6]icosa-1(18),2(20),3,5,15(19),16-hexaene-8-carboxamide] |
| 0.033 µM | 4.2 µM | CCCCCCCCc1ccc(C(=O)N[C@@H](CCC(=O)NC2COC2)C(=O)N(C)[C@@H]2C(=O)N[C@@H](C)C(=O)N[C@H](C(=O)NCC#N)Cc3ccc(OCCN)c(c3)-c3cc2ccc3OCCN)c(C)c1 (racemic) [Compound 447, rac-(2S)-N-methyl-2-[(2-methyl-4-octyl-benzoyl)amino]-N′-(oxetan-3-yl)-N-[rac-(7S,10S,13S)-3,18-bis(2-aminoethoxy)-13-(cyanomethylcarbamoyl)-10-methyl-8,11-dioxo-9,12-diazatricyclo[13.3.1.12,6]icosa-1(19),2,4,6(20),15,17-hexaen-7-yl]pentanediamide] |

| SMILES | MIC [1] | MIC [2] |
| --- | --- | --- |
| CCCCCOc1ccc(-c2nc(C)c(C(=O)N[C@@H](CCN)C(=O)N(C)[C@@H]3C(=O)N[C@@H](C)C(=O)N[C@H](C(=O)NCC#N)Cc4ccc(O)c(c4)-c4cc3ccc4OCCN)c(C)n2)cc1 (racemic) [Compound 518, rac-(8S,11S,14S)-18-(2-aminoethoxy)-N-(cyanomethyl)-3-hydroxy-11-methyl-14-[methyl-[rac-(2S)-4-amino-2-[[4,6-dimethyl-2-(4-pentoxyphenyl)pyrimidine-5-carbonyl]amino]butanoyl]amino]-10,13-dioxo-9,12-diazatricyclo[13.3.1.12,6]icosa-1(18),2(20),3,5,15(19),16-hexaene-8-carboxamide] | 0.028 µM | 0.16 µM |
